Results taken from patent publication US20230321012A1 (priority 2021, published 2023).

Assay: clinical
Conditions: human, plasma, oral
Protocol: Clinical Trial Outline. […] All solid tumor types are eligible for the trial. […] An expansion cohort was included at the RP2D level to confirm safety and tolerability of the combination. […] In Part 2, patients were treated by giving both agents twice daily (BID dosing schedule).
Plasma samples were analyzed for AMXT 1501 concentration via a LC/MS^2 procedure (MI-0028-DB-AB; Agilux Laboratories, Worcester, Massachusetts), and the resulting concentration versus time data were used to estimate individual PK parameters using noncompartmental analysis (NCA).

`CCCCCCCCCCCCCCCC(=O)NCCCC[C@@H](N)C(=O)NCCCNCCCCNCCCN` [AMXT 1501, D-lys(palmitoyl)-spermine] showed an AUC(0-t) (1200 mg, AUC0-6 hr Mean, Part 1 Cohort 4, 1200 mg QD, Cycle 1 Day 1) of 197 ng·h/mL, an AUC(0-t) (1200 mg, AUC0-6 hr Mean, Part 1 Cohort 4, 1200 mg QD, Cycle 1 Day 14) of 1130 ng·h/mL and an AUC(0-t) (1200 mg, AUC0-6 hr Median, Part 1 Cohort 4, 1200 mg QD, Cycle 1 Day 1) of 238 ng·h/mL. The AUC(0-t) (1200 mg, AUC0-6 hr Median, Part 1 Cohort 4, 1200 mg QD, Cycle 1 Day 14) was 681 ng·h/mL, the AUC(0-t) (1200 mg, AUC0-t Mean, Part 1 Cohort 4, 1200 mg QD, Cycle 1 Day 1) was 2730 ng·h/mL and the AUC(0-t) (1200 mg, AUC0-t Mean, Part 1 Cohort 4, 1200 mg QD, Cycle 1 Day 14) was 4700 ng·h/mL. The AUC(0-t) (1200 mg, AUC0-t Median, Part 1 Cohort 4, 1200 mg QD, Cycle 1 Day 1) was 831 ng·h/mL, the AUC(0-t) (1200 mg, AUC0-t Median, Part 1 Cohort 4, 1200 mg QD, Cycle 1 Day 14) was 3490 ng·h/mL and the Cmax (1200 mg, Cmax Mean, Part 1 Cohort 4, 1200 mg QD, Cycle 1 Day 1) was 104 ng/mL. The Cmax (1200 mg, Cmax Mean, Part 1 Cohort 4, 1200 mg QD, Cycle 1 Day 14) was 276 ng/mL, the Cmax (1200 mg, Cmax Median, Part 1 Cohort 4, 1200 mg QD, Cycle 1 Day 1) was 71.2 ng/mL and the Cmax (1200 mg, Cmax Median, Part 1 Cohort 4, 1200 mg QD, Cycle 1 Day 14) was 227 ng/mL. It also gave a Tmax (1200 mg, Tmax Mean, Part 1 Cohort 4, 1200 mg QD, Cycle 1 Day 1) of 11.3 h, a Tmax (1200 mg, Tmax Mean, Part 1 Cohort 4, 1200 mg QD, Cycle 1 Day 14) of 6 h and a Tmax (1200 mg, Tmax Median, Part 1 Cohort 4, 1200 mg QD, Cycle 1 Day 1) of 6 h. For the same compound, the Tmax (1200 mg, Tmax Median, Part 1 Cohort 4, 1200 mg QD, Cycle 1 Day 14) was 6 h, the AUC (1800 mg) was 14200 ng·h/mL and the AUC(0-t) (1800 mg, AUC0-6 hr Mean, Part 1 Cohort 5, 1800 mg QD, Cycle 1 Day 1) was 750 ng·h/mL. It also gave an AUC(0-t) (1800 mg, AUC0-6 hr Mean, Part 1 Cohort 5, 1800 mg QD, Cycle 1 Day 14) of 3110 ng·h/mL, an AUC(0-t) (1800 mg, AUC0-6 hr Mean, Part 1 Cohort 5, 1800 mg QD, Cycle 2 Day 14, n=1) of 7240 ng·h/mL and an AUC(0-t) (1800 mg, AUC0-6 hr Median, Part 1 Cohort 5, 1800 mg QD, Cycle 1 Day 1) of 662 ng·h/mL. For the same compound, the AUC(0-t) (1800 mg, AUC0-6 hr Median, Part 1 Cohort 5, 1800 mg QD, Cycle 1 Day 14) was 3020 ng·h/mL, the AUC(0-t) (1800 mg, AUC0-6 hr Median, Part 1 Cohort 5, 1800 mg QD, Cycle 2 Day 14, n=1) was 7240 ng·h/mL and the AUC(0-t) (1800 mg, AUC0-t Mean, Part 1 Cohort 5, 1800 mg QD, Cycle 1 Day 1) was 10200 ng·h/mL. It also gave an AUC(0-t) (1800 mg, AUC0-t Mean, Part 1 Cohort 5, 1800 mg QD, Cycle 1 Day 14) of 14200 ng·h/mL, an AUC(0-t) (1800 mg, AUC0-t Mean, Part 1 Cohort 5, 1800 mg QD, Cycle 2 Day 14, n=1) of 33700 ng·h/mL and an AUC(0-t) (1800 mg, AUC0-t Median, Part 1 Cohort 5, 1800 mg QD, Cycle 1 Day 1) of 12700 ng·h/mL. The AUC(0-t) (1800 mg, AUC0-t Median, Part 1 Cohort 5, 1800 mg QD, Cycle 1 Day 14) was 12800 ng·h/mL, the AUC(0-t) (1800 mg, AUC0-t Median, Part 1 Cohort 5, 1800 mg QD, Cycle 2 Day 14, n=1) was 33700 ng·h/mL and the Cmax (1800 mg, Cmax Mean, Part 1 Cohort 5, 1800 mg QD, Cycle 1 Day 1) was 367 ng/mL. The Cmax (1800 mg, Cmax Mean, Part 1 Cohort 5, 1800 mg QD, Cycle 1 Day 14) was 794 ng/mL, the Cmax (1800 mg, Cmax Mean, Part 1 Cohort 5, 1800 mg QD, Cycle 2 Day 14, n=1) was 1950 ng/mL and the Cmax (1800 mg, Cmax Median, Part 1 Cohort 5, 1800 mg QD, Cycle 1 Day 1) was 374 ng/mL. The Cmax (1800 mg, Cmax Median, Part 1 Cohort 5, 1800 mg QD, Cycle 1 Day 14) was 766 ng/mL, the Cmax (1800 mg, Cmax Median, Part 1 Cohort 5, 1800 mg QD, Cycle 2 Day 14, n=1) was 1950 ng/mL and the Tmax (1800 mg, Tmax Mean, Part 1 Cohort 5, 1800 mg QD, Cycle 1 Day 14) was 5.5 h. The Tmax (1800 mg, Tmax Mean, Part 1 Cohort 5, 1800 mg QD, Cycle 2 Day 14, n=1) was 6 h, the Tmax (1800 mg, Tmax Median, Part 1 Cohort 5, 1800 mg QD, Cycle 1 Day 1) was 6 h and the Tmax (1800 mg, Tmax Median, Part 1 Cohort 5, 1800 mg QD, Cycle 1 Day 14) was 6 h. The Tmax (1800 mg, Tmax Median, Part 1 Cohort 5, 1800 mg QD, Cycle 2 Day 14, n=1) was 6 h.
